Measurements from the supplement of paper PMC11061612.

Experiments:
[1] = system: JiyoyeP-2003 (Burkitt's Lymphoma); assay: Bliss excess, mean over the matrix (fraction); higher = more synergy
Method in brief: (§1)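 Cell lines in DMEM/F12 or RPMI with 10% FBS were plated in 1536-well plates, held 24 hours at 37°C, 5% CO2, then given two-drug dose matrices for 72 hours (DMSO typically 0.2%). Viability was read by CellTiter-Glo 2.0 luminescence and scaled as inhibition from 0 (vehicle wells) to 1 (blank wells). Combination Emax is the second-highest inhibition in the matrix; Bliss excess is observed combination effect minus expected EA + EB − EA·EB, EA and EB being single-agent effects.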

RH-1 (Ewing's Sarcoma) = assay: as above
Method in brief: as §1

[2] = system: CFPAC-1 (Pancreatic Carcinoma); assay: as above
Method in brief: as §1

[3] = system: LS-513 (Colorectal Carcinoma); assay: as above
Method in brief: as §1

[4] = system: 697 (B-Lymphoblastic Leukemia); assay: as above
Method in brief: as §1

[5] = system: HPAC (Pancreatic Carcinoma); assay: as above
Method in brief: as §1

DSH1 (Bladder Carcinoma) [6] = assay: as above
Method in brief: as §1

[7] = system: KARPAS-620 (Plasma Cell Myeloma); assay: as above
Method in brief: as §1

[8] = system: COR-L95 (Small Cell Lung Carcinoma); assay: as above
Method in brief: as §1

[9] = system: HT-29 (Colorectal Carcinoma); assay: combination Emax (second highest fraction inhibited in the dose matrix, 72 h); higher = more inhibition; extreme values may be limits of the assay
Method in brief: as §1

[10] = system: DMS-273 (Small Cell Lung Carcinoma); assay: as above
Method in brief: as §1

[11] = system: NALM-6 (B-Lymphoblastic Leukemia); assay: as above
Method in brief: as §1

[12] = system: DB (B-Cell Non-Hodgkin's Lymphoma); assay: as above
Method in brief: as §1

[13] = system: SW756 (Cervical Carcinoma); assay: as above
Method in brief: as §1

[14] = system: NCI-H1781 (Lung Adenocarcinoma); assay: as above
Method in brief: as §1

DSH1 (Bladder Carcinoma) [15] = assay: as above
Method in brief: as §1

[16] = system: KM-H2 (Hodgkin's Lymphoma); assay: as above
Method in brief: as §1

[17] = system: C3A (Hepatocellular Carcinoma); assay: as above
Method in brief: as §1

[18] = system: MDA-MB-231 (Breast Carcinoma); assay: as above
Method in brief: as §1

[19] = system: COR-L95 (Small Cell Lung Carcinoma); assay: as above
Method in brief: as §1
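Wherever Bliss excess, mean over the matrix is given: after 72 h of two-drug dosing.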

| Structure (SMILES) | Bliss excess [1] | Bliss excess (RH-1 (Ewing's Sarcoma)) | Bliss excess [2] | Bliss excess [3] | Bliss excess [4] | Bliss excess [5] | Bliss excess (DSH1 (Bladder Carcinoma) [6]) | Bliss excess [7] | Bliss excess [8] | combination Emax [9] | combination Emax [10] | combination Emax [11] | combination Emax [12] | combination Emax [13] | combination Emax [14] | combination Emax (DSH1 (Bladder Carcinoma) [15]) | combination Emax [16] | combination Emax [17] | combination Emax [18] | combination Emax [19] |
| --- | --- | --- | --- | --- | --- | --- | --- | --- | --- | --- | --- | --- | --- | --- | --- | --- | --- | --- | --- | --- |
| NC1(C(=O)N[C@@H](CCO)c2ccc(Cl)cc2)CCN(c2ncnc3[nH]ccc23)CC1 [Capivasertib] + Cn1cnc2c(F)c(Nc3ccc(Br)cc3Cl)c(C(=O)NOCCO)cc21 [Selumetinib] (first compound max 10 µM, 7x7, partner max 10 µM) | 0.101 | 0.0148 | 0.0351 | 0.0031 | -0.165 | 0.0152 | 0.121 | 0.114 | -0.0359 | 0.783 | 0.837 | 0.697 | 0.422 | 0.448 | 0.695 | 0.954 | 0.292 | 0.603 | 0.751 | 0.22 |
| COc1cccc(OCCCN)c1-c1cc(Nc2cnc(C#N)cn2)n[nH]1 [Prexasertib] + CCc1c2c(nc3ccc(O)cc13)-c1cc3c(c(=O)n1C2)COC(=O)[C@]3(O)CC [SN-38] (first compound max 1 µM, 7x7, partner max 0.3 µM) | 0.0073 | -0.0177 | -0.107 | -0.0691 | 0.0017 | 0.0446 | 0.0128 | 0.0396 | -0.121 | 0.936 | 0.997 | 0.983 | 0.983 | 0.802 | 0.993 | 0.924 | 0.944 | 0.649 | 0.978 | 0.844 |
| Cc1nc(Nc2ncc(C(=O)Nc3c(C)cccc3Cl)s2)cc(N2CCN(CCO)CC2)n1 [Dasatinib] + CC(=O)Nc1cccc(-n2c(=O)n(C3CC3)c(=O)c3c(Nc4ccc(I)cc4F)n(C)c(=O)c(C)c32)c1 [Trametinib] (first compound max 2 µM, 7x7, partner max 1 µM) | 0.193 | -0.0353 | 0.106 | 0.0777 | -0.0461 | 0.039 | -0.0516 | 0.0632 | -0.0318 | 0.981 | 0.323 | 0.621 | 0.28 | 0.691 | 0.34 | 0.505 | 0.234 | 0.577 | 0.832 | 0.128 |
| CC1(C)CCC(CN2CCN(c3ccc(C(=O)NS(=O)(=O)c4ccc(NCC5CCOCC5)c([N+](=O)[O-])c4)c(Oc4cnc5[nH]ccc5c4)c3)CC2)=C(c2ccc(Cl)cc2)C1 [Venetoclax] + Cc1cc2ncnn2cc1Nc1ncc2c(n1)n(C1CCOCC1)c(=O)n2C [AZD7648] (first compound max 1 µM, 7x7, partner max 10 µM) | -0.0604 | 0.0029 | -0.0359 | -0.0294 | -0.0154 | 0.0142 | -0.027 | 0.0454 | -0.039 | 0.205 | 0.482 | 0.789 | 0.957 | 0.195 | 0.329 | 0.187 | 0.161 | 0.212 | 0.356 | 0.607 |
| Cc1cc2ncnn2cc1Nc1ncc2c(n1)n(C1CCOCC1)c(=O)n2C [AZD7648] + CN(C)CCCOc1ccc(-c2ccc3ncc4c(c3c2)n(C2CCOCC2)c(=O)n4C)cn1 [AZD0156] (first compound max 10 µM, 7x7, partner max 1 µM) | -0.0067 | 0.0087 | 0.0064 | -0.021 | -0.0136 | -0.0025 | 0.0171 | -0.0373 | -0.0218 | 0.247 | 0.411 | 0.323 | 0.551 | 0.205 | 0.352 | 0.286 | 0.158 | 0.251 | 0.42 | 0.233 |
| CC(=O)c1c(C)c2cnc(Nc3ccc(N4CCNCC4)cn3)nc2n(C2CCCC2)c1=O [Palbociclib] + Cc1c2c(nn1C)CSCc1cc(n(C)n1)CSc1cc(c3ccccc3c1)OCCCc1c(C(=O)O)n(C)c3c-2c(Cl)ccc13 [AZD5991] (first compound max 10 µM, 7x7, partner max 1 µM) | -0.0436 | -0.0722 | -0.0063 | -0.0235 | -0.0709 | -0.0423 | -0.0748 | 0.0443 | -0.0112 | 0.449 | 0.94 | 0.846 | 1 | 0.29 | 0.403 | 0.523 | 0.567 | 0.592 | 0.455 | 0.196 |
| COc1nnc2ccc(N3CCC(c4ccc(OCCN5CCN(C)C(=O)[C@H]5C)cc4)CC3)nn12 [AZD5153] + Cc1c2c(nn1C)CSCc1cc(n(C)n1)CSc1cc(c3ccccc3c1)OCCCc1c(C(=O)O)n(C)c3c-2c(Cl)ccc13 [AZD5991] (first compound max 1 µM, 7x7, partner max 1 µM) | -0.0218 | 0.0034 | -0.0208 | -0.0549 | -0.0558 | -0.0105 | 0.0112 | -0.0115 | -0.0167 | 0.716 | 0.994 | 0.904 | 1 | 0.367 | 0.435 | 1 | 0.451 | 0.559 | 0.642 | 0.371 |
| NC1(C(=O)N[C@@H](CCO)c2ccc(Cl)cc2)CCN(c2ncnc3[nH]ccc23)CC1 [Capivasertib] + CC(=O)c1c(C)c2cnc(Nc3ccc(N4CCNCC4)cn3)nc2n(C2CCCC2)c1=O [Palbociclib] (first compound max 10 µM, 7x7, partner max 10 µM) | 0.0203 | -0.0427 | -0.0758 | -0.0138 | -0.114 | 0.0004 | -0.0395 | 0.0171 | -0.0565 | 0.577 | 0.817 | 0.858 | 0.728 | 0.389 | 0.479 | 0.62 | 0.513 | 0.556 | 0.577 | 0.172 |
| C=CCn1c(=O)c2cnc(Nc3ccc(N4CCN(C)CC4)cc3)nc2n1-c1cccc(C(C)(C)O)n1 [AZD1775] + C[C@@H]1COCCN1C2=NC(=NC(=C2)C3(CC3)[S@](=N)(=O)C)C4=C5C=CNC5=NC=C4 [AZD6738] (first compound max 1 µM, partner max 10 µM) | 0.046 | 0.0329 | -0.0369 | -0.0242 | 0.047 | 0.0473 | 0.0201 | 0.0335 | -0.101 | 0.858 | 0.923 | 0.971 | 0.934 | 0.425 | 0.65 | 0.862 | 0.961 | 0.567 | 0.84 | 0.737 |
| COc1nnc2ccc(N3CCC(c4ccc(OCCN5CCN(C)C(=O)[C@H]5C)cc4)CC3)nn12 [AZD5153] + C=CCn1c(=O)c2cnc(Nc3ccc(N4CCN(C)CC4)cc3)nc2n1-c1cccc(C(C)(C)O)n1 [AZD1775] (first compound max 1 µM, partner max 1 µM) | -0.0401 | -0.0406 | -0.119 | -0.0603 | -0.0478 | -0.111 | -0.132 | -0.0559 | 0.0012 | 0.868 | 0.847 | 0.951 | 0.953 | 0.426 | 0.478 | 0.614 | 0.943 | 0.718 | 0.612 | 0.433 |
| Cc1cc2ncnn2cc1Nc1ncc2c(n1)n(C1CCOCC1)c(=O)n2C [AZD7648] + C[C@@H]1COCCN1C2=NC(=NC(=C2)C3(CC3)[S@](=N)(=O)C)C4=C5C=CNC5=NC=C4 [AZD6738] (first compound max 10 µM, 7x7, partner max 10 µM) | 0.0127 | -0.0016 | -0.0108 | 0.0641 | -0.009 | 0.0187 | -0.0234 | -0.0283 | -0.0029 | 0.808 | 0.788 | 0.932 | 0.54 | 0.401 | 0.443 | 0.736 | 0.774 | 0.548 | 0.605 | 0.621 |
| CN(CCO)CC[C@H](CSc1ccccc1)Nc1ccc(S(=O)(=O)NC(=O)c2ccc(N3CCC([C@@H](O)c4ccccc4-c4ccc(Cl)cc4)CC3)cc2)cc1S(=O)(=O)C(F)(F)F [AZD4320] + CCN(CCO)CCCOc1ccc2c(Nc3cc(CC(=O)Nc4cccc(F)c4)[nH]n3)ncnc2c1 [AZD2811] (first compound max 1 µM, 7x7, partner max 1 µM) | 0.057 | -0.0551 | -0.0754 | -0.0584 | 0.0021 | 0.0486 | 0.0821 | 0.0899 | 0.0522 | 0.232 | 0.766 | 0.98 | 0.891 | 0.157 | 0.741 | 0.819 | 0.196 | 0.22 | 0.813 | 1 |
| CN(CCO)CC[C@H](CSc1ccccc1)Nc1ccc(S(=O)(=O)NC(=O)c2ccc(N3CCC([C@@H](O)c4ccccc4-c4ccc(Cl)cc4)CC3)cc2)cc1S(=O)(=O)C(F)(F)F [AZD4320] + C[C@@H]1COCCN1C2=NC(=NC(=C2)C3(CC3)[S@](=N)(=O)C)C4=C5C=CNC5=NC=C4 [AZD6738] (first compound max 1 µM, 7x7, partner max 10 µM) | -0.0334 | 0.0321 | -0.0077 | -0.0354 | 0.013 | -0.007 | 0.0405 | -0.0028 | -0.0234 | 0.936 | 0.813 | 1 | 0.959 | 0.381 | 0.519 | 0.94 | 0.909 | 0.52 | 0.849 | 1 |
